Results: US9399045B2, “Inhibition of choroidal neovascularization” (Washington University, priority 2011, dated 2016)

Tests used:
[1] = system: choroidal neovascularization (CNV); assay: Laser-induced CNV in old mice; assay type: in vivo, mouse; conditions: intraperitoneal, 25 or 50 mg/kg/day for 5 days prior to laser, FIG. 4h-i
Experimental: Rupture of Bruchs membrane with laser was used to initiate CNV in mice as described previously (Apte R S, Niederkorn J Y. Isolation and characterization of a unique natural killer cell inhibitory factor present in the anterior chamber of the eye. J. Immunol. 156:2667-2673, 1996). Briefly, mice were anesthetized by injecting ketamine hydrochloride (100 mg/kg) and xylazine (13.4 mg/kg) intraperitoneally, and their pupils were dilated with 1% tropicamide. Using argon green laser, four laser burns were placed around the optic nerve (0.1 second, 50 μm, and 110 mW). Seven days after laser, mice were anesthetized as described above and perfused intraventricularly with FITC-dextran (Sigma-Aldrich). Mice were euthanized in a CO2 chamber, and their eyes were harvested for tissue processing. […]
Micro scissors were used to make four radial incisions in the sclerochoroidal “eyecup” to prepare choroidal flat mounts on glass slides. […] The choroidal flat mounts were analyzed for the presence of CNV by confocal microscopy. The extent of choroidal neovascularization was quantified by Metamorph Imaging software. […]
(§1) Old mice (>18 months) were given a daily intraperitoneal injection of vehicle, 25 mg/kg or 50 mg/kg TO-901317. After five consecutive days treatment, CNV was induced in one set of mice (5 of each group) and analyzed as described above. […]

ABCA1 gene expression = ABCA1 gene expression in peritoneal macrophages treated with LXR agonist (real time qPCR); assay type: cell-based, mouse; conditions: peritoneal young or old macrophages, 24 hours, 0 to 10 μM, FIG. 4a-b
Experimental: (§2) Peritoneal macrophages recruitment was elicited by intraperitoneal injection of 4% thioglycollate. Five days after injection, macrophages were harvested and cultured in RPMI-1640 overnight (Gibco, Grand Island, N.Y.). Macrophages were then washed with RPMI-1640 and non-adherent cells removed. Total RNA was prepared from splenic macrophage, peritoneal macrophages, retina, choroid or PBMCs using the RNeasy mini kit (Qiagen inc., Valencia, Calif.). cDNA was prepared using the High Capacity cDNA Archive Kit (Applied Biosystems) and PCR amplifications of cDNA were performed using Taqman probe-based gene expression assay (Applied Biosystems) as previously described (Kelly, J., et al., Senescence regulates macrophage activation and angiogenic fate at sites of tissue injury in mice. J Clin Invest 117, 3421-3426, 2007). Primer and probe sets were as follows: ActB. Mm00607939_s1; ABCA1, Mm00442649_ml; ABCG1, Mm01348250_ml; IL-6, Mm00446190_ml; FasL, Mm00438864_ml; IL-10, Mm99999062_ml; 18s rRNA. Hs99999901_s1; ABCA1, Hs00442663_ml; ABCG1: Hs 01555199_gl; IL10, Hs00961622_ml. Young and old peritoneal macrophages were treated with Liver X Receptor (LXR) agonist, TO-901317 (Sigma-Aldrich, St. Louis, Mo.) for 24 hours. […] Treated macrophages were analyzed for ABCA1 and ABCG1 gene expression and their ability to inhibit HMVECs proliferation was tested.

HMVECs = assay: Vascular endothelial cell proliferation assay: HMVECs co-cultured with treated peritoneal macrophages, [3H] thymidine; assay type: cell-based, human
Experimental: Cell proliferation was measured with an adaptation of a previously described method (Khan, A. A. & Apte, R. S. An assay for macrophage-mediated regulation of endothelial cell proliferation. Immunobiology 213, 695-699, 2008). HMVECs (1×10^4 cells) in log phase were cultured in 96-well round-bottomed plates for adherence. HMVECS cells were then co-cultured with peritoneal macrophages (1:25 ratio) and incubated with 5 μCi/ml [^3H] thymidine (PerkinElmer) for 24 hours. Cells were harvested onto glass fiber filters (Packard) and incorporated [3H] thymidine was read using TopCount NXT (PerkinElmer).
Young and old peritoneal macrophages were treated with Liver X Receptor (LXR) agonist, TO-901317 (Sigma-Aldrich, St. Louis, Mo.) for 24 hours. LXR agonist was dissolved in DMSO (vehicle) and treatment dosage ranged from 0 to 10 μM. Treated macrophages were analyzed for ABCA1 and ABCG1 gene expression and their ability to inhibit HMVECs proliferation was tested.
Peritoneal macrophages were transfected with 50 nM miScript miR33 inhibitor (anti-miR33) or negative control inhibitor (con anti-miR) using HiPerFect Transfection reagent (Qiagen). The transfection efficiency of macrophages was assessed using BLOCK-iT Fluorescent Oligo (Invitrogen). After miR33 inhibition, target genes and proteins were analyzed by qPCR and Western blot.

ABCA1 expression = ABCA1 expression in tissues of old mice after 5 days of intraperitoneal TO-901317; assay type: in vivo, mouse; conditions: 25 or 50 mg/kg/day for 5 days, FIG. 4e-g and FIG. 10
Experimental: (§3) Total RNA was prepared from splenic macrophage, peritoneal macrophages, retina, choroid or PBMCs using the RNeasy mini kit (Qiagen inc., Valencia, Calif.). cDNA was prepared using the High Capacity cDNA Archive Kit (Applied Biosystems) and PCR amplifications of cDNA were performed using Taqman probe-based gene expression assay (Applied Biosystems) as previously described (Kelly, J., et al., Senescence regulates macrophage activation and angiogenic fate at sites of tissue injury in mice. J Clin Invest 117, 3421-3426, 2007). Primer and probe sets were as follows: ActB. Mm00607939_s1; ABCA1, Mm00442649_ml; ABCG1, Mm01348250_ml; IL-6, Mm00446190_ml; FasL, Mm00438864_ml; IL-10, Mm99999062_ml; 18s rRNA. […]
(§4) Whole cell lysate was extracted from mouse peritoneal macrophages or human PBMCs using lysis buffer (50 mM Tris (pH=7.4), 150 mM NaCl, 1% EDTA, 10% TritonX, and 1% SDS) with proteinase inhibitor (Complete, Roche). […] Proteins were detected and analyzed using the Odyssey Infrared Imaging System (LI-COR Biosciences, Lincoln, Nebr.). Band densities of ABCA1 and ABCG1 were quantified and normalized to β-actin.
as §1

ABCG1 gene expression = ABCG1 gene expression in peritoneal macrophages treated with LXR agonist (real time qPCR); assay type: cell-based, mouse; conditions: peritoneal young or old macrophages, 24 hours, 0 to 10 μM, FIG. 4a-b
Experimental: as §2

ABCG1 expression = ABCG1 expression in tissues of old mice after 5 days of intraperitoneal TO-901317; assay type: in vivo, mouse; conditions: 25 or 50 mg/kg/day for 5 days, FIG. 4e-g and FIG. 10
Experimental: as §3, §4, §1

`O=S(=O)(c1ccccc1)N(CC(F)(F)F)c1ccc(C(O)(C(F)(F)F)C(F)(F)F)cc1` [TO-901317, N-(2,2,2-trifluoro-ethyl)-N-[4-(2,2,2-tri-fluoro-1-hydroxy-1-trifluoromethyl-ethyl)-phenyl]-benzenesulfonamide] was tested, and the “CNV compared to vehicle treated old mice” value [1] was “significant and dose dependent reduction in CNV”, the ABCA1 gene expression (ABCA1 gene expression) was “dose-dependent upregulation” and the “ability of treated macrophages to inhibit HMVECs proliferation” value (HMVECs; Abca1−/− macrophages treated with LXR agonist) was “does not restore their ability to inhibit HMVECs proliferation”. The “ability of treated macrophages to inhibit endothelial cell proliferation” value (HMVECs; old macrophages treated with LXR agonist, co-cultured with HMVECs, FIG. 4d) was “completely restored their ability to inhibit endothelial cell proliferation”, the “ABCA1 expression compared to vehicle treated mice” value (ABCA1 expression) was “strong systemic upregulation” and the ABCG1 gene expression (ABCG1 gene expression) was “dose-dependent upregulation”. For the same molecule, the “ABCG1 expression compared to vehicle treated mice” value (ABCG1 expression) was “strong systemic upregulation”.
